Structures can show the parent of a compound that is named as a salt.

For the assay, the target named is T1, human V1a receptor (Homo sapiens, UniProt P37288).
T1 construct: expressed in transfected cells; host or cells: HEK293 cells, transiently transfected; cell membranes
T1 sequence (P37288 whole entry): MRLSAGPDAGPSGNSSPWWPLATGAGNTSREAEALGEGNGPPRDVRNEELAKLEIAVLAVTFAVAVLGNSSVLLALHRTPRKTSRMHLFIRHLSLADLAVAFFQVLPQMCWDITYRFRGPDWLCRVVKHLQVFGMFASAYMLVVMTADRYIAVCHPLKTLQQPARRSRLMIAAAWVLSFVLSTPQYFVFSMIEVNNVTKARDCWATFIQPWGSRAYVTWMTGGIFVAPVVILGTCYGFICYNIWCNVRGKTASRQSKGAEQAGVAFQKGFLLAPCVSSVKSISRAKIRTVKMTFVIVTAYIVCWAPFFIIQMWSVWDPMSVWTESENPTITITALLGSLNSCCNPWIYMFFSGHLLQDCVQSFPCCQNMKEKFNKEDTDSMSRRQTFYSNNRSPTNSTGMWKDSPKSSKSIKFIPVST
Kind of assay: human V1a receptor binding (3H-Vasopressin SPA, HEK293 membranes). Particulars: displacement of 4 nM 3H-Vasopressin, membranes of HEK293 cells transiently transfected with human V1a receptor; Ki from IC50 by Cheng-Prussoff. Put shortly: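 Ki derived by Cheng-Prusoff from IC50 curves normalised to specific binding. Serially diluted compounds (in 2% DMSO) competed with 3H-vasopressin (4 nM working solution) for 1 h at room temperature on SPA beads bearing membranes of transiently transfected HEK293 cells; unlabelled vasopressin defined non-specific counts.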
As for `O=C(c1c2n(c3ccccc13)CCNC2)N1CCC2(CC1)OCc1ccccc12` [Example 275, 1′-(1,2,3,4-Tetrahydropyrazino[1,2-a]indol-10-ylcarbonyl)-3H-spiro[2-benzofuran-1,4′-piperidine]hydrochloride], affinity was put at a Ki of 15.7 nM.
With `CN1CCn2c(c(C(=O)N3CCC4(CC3)OCc3ccccc34)c3ccccc32)C1` [Example 276, 1′-[(2-Methyl-1,2,3,4-tetrahydropyrazino[1,2-a]indol-10-yl)carbonyl]-3H-spiro[2-benzofuran-1,4′-piperidine]] the figure was 12 nM; with `Cc1[nH]c2cc(Cl)ccc2c1C(=O)N1CCC2(CC1)OCc1ccccc12` [Example 277, 1′-[(6-Chloro-2-methyl-1H-indol-3-yl)carbonyl]-3H-spiro[2-benzofuran-1,4′-piperidine]], 5.2 nM; with `O=C(c1c[nH]c2cc(Cl)ccc12)N1CCC2(CC1)C(=O)Nc1ccc(Br)cc12` [Example 280, 5-Bromo-1′-[(6-chloro-1H-indol-3-yl)carbonyl]spiro[indole-3,4′-piperidin]-2(1H)-one], 67.6 nM.
With `Cc1c(C(=O)N2C[C@@H](C)[C@]3(OC(=O)c4ccccc43)[C@@H](C)C2)c2ccccc2n1Cc1ccccc1` [Example 281, (1R,3′R,5′S)-1′-[(1-Benzyl-2-methyl-1H-indol-3-yl)carbonyl]-3′,5′-dimethyl-3H-spiro[2-benzofuran-1,4′-piperidin]-3-one] the figure was 19.1 nM.
With `CNC(=O)Cn1cc(C(=O)N2CCC3(CC2)NC(=O)c2ccccc23)c2ccc(Cl)cc21` [Example 283, 2-{6-Chloro-3-[(3-oxo-2,3-dihydro-1′H-spiro[isoindole-1,4′-piperidin]-1′-yl)carbonyl]-1H-indol-1-yl}-N-methylacetamide] the figure was 63.1 nM; with `O=C(c1c[nH]c2cc(Cl)ccc12)N1CCC2(CC1)NCc1ccccc12` [Example 284, 1′-[(6-Chloro-1H-indol-3-yl)carbonyl]-2,3-dihydrospiro[isoindole-1,4′-piperidine]], 138 nM.

As a reminder, the Ki is the dissociation constant of the complex between target and ligand, obtained from inhibition or displacement. Lower therefore signals higher affinity.

The record behind these values is patent US7332501B2, “Indol-3-yl-carbonyl-spiro-piperidine derivatives as V1a receptor antagonists” (Hoffmann-La Roche Inc., priority 2005, dated 2008).
